Data: patent US9587220B2, “Method for inducing cardiac differentiation of pluripotent stem cell” (Kyoto University, priority 2012, dated 2017)
Entries after “also recorded” stand apart in the source; their conditions may differ.

Legend:
[1] = tested on: human αMHC promoter-driven EGFP transgenic monkey ESCs; experiment: αMHC promoter-driven GFP expression, cardiac differentiation of transgenic monkey ESCs (HCA); format: cell-based; details: for intensity of the GFP signal driven by αMHC promoter: comparison of chemical and proteinaceous WNT inhibitors, FIG. 3b,c; for cardiac differentiation when BIO was added: monkey ESCs and hiPSCs, with 5 μM BIO
Description: To generate human αMHC promoter-driven EGFP-expressing monkey ESCs, the 918 bp upstream from the transcriptional starting site and the third exon just before the open reading frame were amplified from genomic DNAs of KhES-1 hESCs by PCR, using the following primer sets —forward primer, 5′- […]-3′ (SEQ ID No: 37); reverse primer, 5′- (including a SalI linker) 22 […]-3′ (SEQ ID No: 38)—and then ligated into pGEM-T Easy Vector (Promega). The HindIII/SalI fragment from the cloning vector was connected with pEGFP-1 (Clontech). The linearized αMHC-EFGP vector was introduced into CMK6.4 monkey ESCs by electroporation. Transgenic ESC clones were selectively grown with G418 (Sigma-Aldrich). The expression of EGEP was confirmed in beating colonies.
The confluent (4-5 d after passage) αMHC-GFP transgenic monkey ESCs were dissociated enzymatically by CTK solution (Non-patent literature 1), and the ESC clumps (40-100 μm in diameter) were obtained using 40 and 100 μm Cell Strainers (BD Biosciences). The ESC clumps (approximately 5.0×10^3 cells well^−1) were transferred onto 96-well plates (Greiner Bio-One, 96-well black plate, Cat. No. 655090) and incubated in cardiac differentiation medium as described in (4) below. During Days 6-14 of cardiac differentiation, 9600 compounds from the chemical library (dissolved in DMSO) were screened using 96-well plates. Sixteen and 80 wells were used for the control (0.1% DMSO) and chemical compounds (1 per well), respectively. Final concentration of the each compound was approximately 1-5 μM. Medium containing small molecules was changed every 4 d. On Day 14, GFP fluorescence of ESCs was measured by whole-plate scanning, using the Metamorph imaging system (Molecular Device). Metamorph software was used to analyze the GFP fluorescence data and calculate Fluorescence Area, Total Fluorescence Intensity, Average Fluorescence Intensity, and number of GFP-positive colonies for each well. Hit compounds were determined by the following criteria: Average Fluorescence Intensity of a well with the compound was >6 SD greater than Average Fluorescence Intensity of the control (mean of 16 wells), and Total Fluorescence Intensity for the compound was >0 SD greater than the control; or Total Fluorescence Intensity of the compound was >4 SD greater than the control, and Average Fluorescence Intensity of the compound was >0 SD greater than the control. One hundred and twenty compounds passed these criteria and were retested using 8 wells for each compound.
Confluent hESCs and hiPSCs were gently detached with CTK solution and transferred into Petri dishes (BD Biosciences) with Primate ES Cell Culture Medium (ReproCELL, Japan). Cells were held in suspension culture for 8-24 h to form aggregates. The sizes of hPSC aggregates (0.3-1 mm in diameter) are important for efficient differentiation. Following suspension culture, cell aggregates were attached to culture dishes (3-10×10^5 cells cm^−2) in cardiac differentiation medium: IMDM (Sigma), containing 20% FBS (Gibco), 1% MEM non-essential amino acid solution (Sigma), 1% Penicillin-Streptomycin (Gibco), 2 mM L-glutamine (Sigma), 0.001% 2-Mercaptoethanol (Gibco), and 0.005N NaOH, with 10 ng ml^−1 BMP4 (R&D Systems). The medium was changed to cardiac differentiation medium with 10 μM KY02111 and/or other WNT inhibitors added on Day 3 (hiPSC lines) or Day 4 (human or monkey ESC lines); XAV939 (Wako, Japan), IWP-2 (Santa Cruz Biotechnology), IWR-1 (Merck4Bioscience), IGFBP4 (R&D Systems), Dkk1 (R&D Systems) and the mixture of bFGF (R&D Systems), BMP4 (R&D Systems), VEGF (R&D Systems), DKK1 (R&D Systems), and Activin A (R&D Systems) (Non-patent literature 16). Medium was changed every 2-3 d. KY02111 and other WNT inhibitors were added until Day 9 for hiPSC lines and the monkey ESC line, or Day 14 for hESC lines. […]

[2] = tested on: TCF promoter activity (canonical WNT signaling) in IMR90-1 hiPSCs; experiment: TOPflash TCF reporter-luciferase assay in hiPSCs; format: cell-based, human; details: 10 μM, with 60 ng/ml Wnt3a or 3 μM BIO
Experimental: For the TCF reporter assay, IMR90-1 hiPSCs were cultured in the serum-containing differentiation culture, as described above, and transfected with TOPFlash plasmid (Millipore 21-170) and pRL-SV40 plasmid (Renilla luciferase transfection control, Promega E1980) on Day 2, using FuGENE HD transfection Reagenet (Promega E2311). After 24 h, 10 μM KY02111, 10 μM XAV939, or 10 μM IWP-2 was added to the medium, along with either 60 ng ml^−1 of mouse Wnt3a (Wako 232-02421) or 3 μM BIO. After 48 h of transfection (Day 4), luciferase activities were measured using a Dual-Luciferase Reporter 1000 Assay System kit (Promega E1980) and a 2030 ARVO X3 plate reader (PerkinElmer). Luciferase activities were normalized to the luminescence of the transfection control, Rennila luciferase, according to the kit protocol. For experiments using HEK293 cells, the cells were cultured in 10% FBS DMEM medium, and transfected with TOPflash and pRL-SV40 plasmid, using FuGENE HD. After 24 h, the transfected cells were seeded onto 96-well plates (10,000 cells well^−1) in medium containing 10 μM KY02111, 10 μM XAV939, or 10 μM IWP-2, along with 3 μM BIO or 60 ng ml^−1 mouse Wnt3a. Luciferase activities were measured 48 h after transfection by the procedure described above.

SMILES	intensity of the GFP signal driven by αMHC promoter [1]	cardiac differentiation when BIO was added [1]	TCF promoter (luciferase) activity elevated by Wnt3a or BIO [2]	increase of differentiation compared to the control (GFP signal) ([1]; 10 μM, comparison of WNT inhibitors, FIG. 3b)	GFP expression level induced by N11474 and related compounds (structure-activity) ([1]; DMSO=100%)	promotion of cardiac differentiation relative to DMSO control (GFP increase ratio) ([1]; FIG. 1d)	promotion of cardiac differentiation relative to N11474 ([1]; FIG. 1d)
Oc1nc(-c2ccc(C(F)(F)F)cc2)nc2c1CSCC2 [XAV939, reference compound]	increased	completely inhibited	clearly reduced luciferase activities; also recorded: inhibited				
Cc1ccc2nc(NC(=O)CSc3nc4c(c(=O)n3-c3ccccc3)SCC4)sc2c1 [IWP-2, reference compound]	increased	completely inhibited	didn't inhibit				
COc1ccc(CCC(=O)Nc2nc3ccc(Cl)cc3s2)cc1OC [KY02111, 2-(3-(3,4-dimethoxyphenyl)propanamide)-6-chlorobenzothiazole]	most effective	not affected by BIO	clearly reduced luciferase activities; also recorded: inhibited	about 80 fold	induced the highest levels	about 73 times	7.4 times
